Results from publication PMC10301896 (Pharmaceutics, 2023).
Structures can show the parent of a compound that is named as a salt.

What was measured:
[1] = in vivo; settings: male, albino, rabbit, iv, 10 mg/kg
[2] = control rabbits
[3] = Chelation with Al3+ ion in vitro (precipitation with AlCl3); assay type: physicochemical; settings: drug 50 μM, pH 6.5, 30 min, 24 °C
Description: AlCl3 was also dissolved in the same buffer at a concentration of 50 μM, 100 μM, 200 μM, 1 mM, or 2 mM, and each drug solution and AlCl3 solution were mixed at an equal volume. The mixture solution was shaken, stood for 30 min at 24 °C and centrifuged. The supernatant was filtrated through a syringe filter with 0.22 μm of pore size (Millipore, Tokyo, Japan).

[4] = cited from earlier work
[5] = in vivo; settings: for AUC(0-t) / AUC(0-inf) / bioavailability / Cmax / Tmax: male, albino, rabbit, in vivo, po, 150 mg/kg, TC 150 mg/kg orally; for AUC(0-t): AUC0–6h; for AUC(0-inf): AUC0–∞; for bioavailability: Bioavailability (absolute oral)
Description: Rabbits were supplied solid food for rabbits (CR-3M, CLEA Japan, Inc., Tokyo, Japan), and the average amount of CR-3M that each rabbit ingested was 100–110 g/day. CR-3M contains various vitamins and cationic metals including Ca, Mg, and iron (Fe^2+, Fe^3+) in addition to various energy sources. […] Coprophagy was not prevented in control rabbits.
After administration orally by stomach intubation, blood samples (100 μL each) were taken periodically from the ear vein at 0.25, 0.5, 1, 2, 4 and 6 h. Blood samples were centrifuged at 3000× g for 10 min to obtain plasma samples.

With `CN(C)[C@@H]1C(O)=C(C(N)=O)C(=O)[C@@]2(O)C(O)=C3C(=O)c4c(O)cccc4[C@@](C)(O)[C@H]3C[C@@H]12` [TC, tetracycline hydrochloride] the AUC(0-t) [1] was 7570 ± 1380 ng·h/mL, the β ([2]; […] iv infusion, LFX 20, CFX 30, TC 10 mg/kg) was 0.28 ± 0.10 h⁻¹ and the “Total plasma clearance (CLtotal), Doseiv/AUC0–∞” value ([2]; iv infusion) was 18.83 mL/min/kg. For the same compound, the “Precipitation (%)” value ([3]; AlCl3 25 μM) was 63.2 ± 21.3%, the “Precipitation (%)” value ([3]; AlCl3 50 μM) was 84.0 ± 13.9% and the “Precipitation (%)” value ([3]; AlCl3 100 μM) was 91.6 ± 7.3%. For the same compound, the “Precipitation (%)” value ([3]; AlCl3 500 μM) was 96.2 ± 5.7%, the “Precipitation (%)” value ([3]; AlCl3 1 mM) was 99.4 ± 1.19% and the “Oral bioavailabilities in humans” value ([4]; LFX 200–750 mg, CFX 200–1000 mg, TC 250 mg, ref references listed in the discussion section) was 77–88% (250 mg). The Absolute oral bioavailability ([4]; humans, dose of 250 mg) was 77–88%, the “TC in plasma after oral administration” value ([5]; at a lower dose than 30 mg/kg, rabbits) was “not detected” and the AUC(0-t) ([5]; EDTA-treated rabbits) was 4680 ± 930 ng·h/mL. It also gave an AUC(0-t) ([5]; control rabbits) of 2540 ± 910 ng·h/mL, an AUC(0-inf) ([5]; EDTA-treated rabbits) of 6490 ± 1080 ng·h/mL and an AUC(0-inf) ([5]; control rabbits) of 3390 ± 1260 ng·h/mL. The bioavailability ([5]; EDTA-treated rabbits) was 4.9 ± 0.81%, the bioavailability ([5]; control rabbits) was 2.56 ± 0.95% and the Cmax ([5]; EDTA-treated rabbits) was 1120 ± 280 ng/mL. It also gave a Cmax ([5]; control rabbits) of 730 ± 220 ng/mL, a Tmax ([5]; EDTA-treated rabbits) of 2 h and a Tmax ([5]; control rabbits) of 1.67 ± 0.58 h.
